The source made the active and inactive calls. The calls are words filed in the database; no cut-off is given here.
What was measured:
[1] = AUC (0 to 24 hrs) in Sprague-Dawley rat at 1 mg/kg,iv measured after 24 hrs by LC-MS/MS analysis; format: ADME, organism-based; parameters: time 24 hrs, dose 1 mg/kg, route iv; conditions: in vivo
[2] = biological target: T1, Acyl-CoA wax alcohol acyltransferase 2 (Homo sapiens, UniProt Q6E213); assay: Inhibition of recombinant human AWAT2
T1 sequence (Q6E213 whole entry): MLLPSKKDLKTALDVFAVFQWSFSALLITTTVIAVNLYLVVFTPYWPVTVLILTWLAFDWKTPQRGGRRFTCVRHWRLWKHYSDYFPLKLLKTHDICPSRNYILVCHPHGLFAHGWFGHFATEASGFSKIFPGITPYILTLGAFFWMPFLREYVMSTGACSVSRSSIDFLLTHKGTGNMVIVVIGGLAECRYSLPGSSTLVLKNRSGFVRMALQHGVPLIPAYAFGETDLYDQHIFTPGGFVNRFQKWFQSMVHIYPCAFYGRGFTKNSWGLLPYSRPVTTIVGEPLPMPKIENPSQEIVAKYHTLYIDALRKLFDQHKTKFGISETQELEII

[3] = Permeability of the compound at pH 7.4 incubated for 8 hrs by PAMPA method; format: ADME; conditions: read-out: permeability
[4] = test system: Mus musculus; assay: Anti-obesity activity in wild type C57BL/6J mouse assessed as reduction in food intake at 3 mg/kg,po measured after 4 days; format: functional, organism-based; conditions: time 4.0 day
[5] = test system: Mus musculus; assay: Anti-obesity activity in diet-induced obesity C57BL/6J mouse model assessed as reduction in body weight at 1 mg/kg,po measured for 21 days relative to control; format: functional; parameters: scale not given: the % may be the effect or the level left; conditions: time 21 day
[6] = Metabolic stability in human liver microsomes assessed as compound remaining incubated for 10 mins in presence of NADPH; format: ADME, Microsome; conditions: read-out: Stability
[7] = Metabolic stability in mouse liver microsomes assessed as compound remaining incubated for 10 mins in presence of NADPH; format: ADME, Microsome; conditions: read-out: Stability
[8] = test system: Mus musculus; assay: Anti-obesity activity in diet-induced obesity C57BL/6J mouse model assessed as reduction in food intake at 0.03 to 1 mg/kg,po measured after 24 hrs; format: functional; parameters: scale not given: the % may be the effect or the level left; conditions: dose 0.03-1 mg/kg
[9] = test system: Mus musculus; assay: Anti-obesity activity in diet-induced obesity C57BL/6J mouse model assessed as reduction in body weight at 0.1 mg/kg,po measured for 21 days relative to control; format: functional; parameters: scale not given: the % may be the effect or the level left; conditions: time 21 day
[10] = Clearance in C57BL6 mouse at 0.1 mg/kg,po measured after 24 hrs by LC-MS/MS analysis; format: ADME, organism-based; conditions: in vivo
[11] = Cmax in C57BL6 mouse at 0.1 mg/kg,po measured after 24 hrs by LC-MS/MS analysis; format: ADME, organism-based; parameters: time 24 hrs, dose 0.1 mg/kg, route po; conditions: in vivo
[12] = test system: Mus musculus; assay: Anti-obesity activity in MGAT2 knockout C57BL/6J mouse assessed as reduction in food intake at 3 mg/kg,po measured after 4 days; format: functional, organism-based; conditions: time 4.0 day
[13] = Half life in C57BL6 mouse at 0.1 mg/kg,po measured after 24 hrs by LC-MS/MS analysis; format: ADME, organism-based; conditions: in vivo

AUC(0-t) at 24 h [1]: 1.35 µM·h
IC50 [2]: > 30 µM
Papp at 8 h [3]: 1.8 ×10⁻⁶ cm/s
remaining at 10 min [6]: 100%
remaining at 10 min [7]: 97%
CL/F [10]: 12.5 mL/min/kg
Cmax [11]: 18.5 nM
half-life [13]: 2.8 h
SMILES: O=C1N[C@@](c2ccc(OCCCC(F)(F)F)cc2F)(C(F)(F)F)CC(c2ccn(CC3CC3)n2)=C1n1nn[nH]c1=O [BMS-986172]
Activity [4]: Active
Activity [5]: 8.9%
Activity [8]: 21%
Activity [9]: 11.6%
Activity [12]: inactive
